From patent publication US9822115B2, “Nitrogen containing compounds and their use as antibacterial agents” (WOCKHARDT LIMITED, priority 2014, dated 2017) come the findings set out here.

Experiment [1] concerns E. coli NCTC 13353 (CTX-M15, OXA-1). In words: Antibacterial activity, MIC by agar dilution (CLSI). The class given is cell-based. As to conditions: Escherichia coli, NCTC13353, Table 2; E. Coli NCTC 13353 (CTX-M15, OXA-1); read-out: MIC. The essentials: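 CLSI agar dilution on Mueller Hinton agar containing doubling compound dilutions, inoculated at about 10^4 CFU/spot from fresh cultures. Plates were incubated 18 h at 37 °C in ambient air before growth scoring. MIC is reported in mcg/ml.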

Experiment [2] has as its system K. pneumoniae H521 (KPC, SHV, TEM). The experiment is described as above. The note with it: Klebsiella pneumoniae, Table 2; K. pneumoniae H521 (KPC, SHV, TEM); read-out: MIC. The class given is cell-based. The essentials:
(§1)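 Agar dilution per CLSI on Mueller Hinton agar with doubling compound dilutions, about 10^4 CFU/spot by multipoint inoculator. Plates incubated 16-20 h at 35±2° C in ambient air; procedure also gives 37° C for 18 h. MIC (mcg/ml) scored as growth or no growth.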

Experiment [3] concerns K. pneomoniae S48 (NDM, SHV, TEM). Described as above. The class given is cell-based, K. pneumoniae. As to conditions: Klebsiella pneumoniae; Table 2; K. pneomoniae S48 (NDM, SHV, TEM); read-out: MIC. An outline of the steps: as §1
Experiment [4] concerns the target T1, Class A beta-lactamase, K. pneumoniae ATCC 700603 (SHV 18) (Klebsiella pneumoniae, UniProt P0AD64, E235K/G234A/R39S).
T1 construct: preincubated mixture of crude enzyme and the agents; endogenous in cells; host or cells: K. pneumoniae ATCC 700603
In words: biochemical. An outline of the steps: (§2)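 Crude enzyme preincubated with inhibitor 10 min at 37 °C, then nitrocefin (100 uM) added for 5 min. Absorbance read at 485 nm; IC50 obtained from sigmoidal dose-response fit of absorbance versus concentration.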

In experiment [5] the test system is T2, Class C beta-lactamase, E. coli M50 (CMY/DHA).
T2 construct: no borders, tags or purification printed
The class given is biochemical. As to conditions: read-out: Beta-lactamase enzyme inhibition IC50. The essentials: as §2

Experiment [6] deals with T3, Class D beta-lactamase, A. baumannii NCTC 13301 (OXA 23) (Acinetobacter baumannii, UniProt Q9L4P2).
T3 construct: preincubated mixture of crude enzyme and the agents; endogenous in cells; host or cells: A. baumannii NCTC 13301
In words: Beta-lactamase enzyme inhibition (nitrocefin, crude enzyme). The class given is biochemical. The note with it: Class D A. baumannii NCTC 13301 (OXA 23); read-out: Beta-lactamase enzyme inhibition IC50. An outline of the steps: as §2

Another experiment deals with E. coli M50. In words: Zone of inhibition, compound alone and in combination with ceftazidime (agar well). The class given is cell-based. The note with it: for zone of inhibition at 0.5 µg/disc: 0.5 μg/well; for zone of inhibition at 1 µg/disc: 1 μg/well; for Diameter of Zone of Inhibition: E. coli M50. The protocol:
(§3) Determination of antibacterial activity of combinations according to invention: In a typical experiment, two sets of plates containing growth media (Molten Mueller Hilton Agar) and bacterial strains were prepared. One set of plates was taken as control (without ceftazidime) and other set contained ceftazidime. The media was allowed to solidify and wells were punched later. A two-fold serial dilution range of each of the compounds according to invention was prepared and 50 μl of each of the dilution was added into the punched well. […] The Table 5 provides the antibacterial activity of the combination comprising compounds according to invention and ceftazidime.

The next experiment deals with E. coli NCTC 13353. The experiment is described as above. The class given is cell-based. The note with it: for zone of inhibition at 0.25 µg/disc / zone of inhibition at 0.5 µg/disc / zone of inhibition at 1 µg/disc / zone of inhibition at […]: Escherichia coli, NCTC13353, E. coli NCTC 13353, read-out: Diameter of Zone of Inhibition; for zone of inhibition at 0.5 µg/disc: 0.5 μg/well; for zone of inhibition at 1 µg/disc: 1 μg/well. The procedure:
as §3

[7] abbreviates: Escherichia coli, M50, E. coli M50, Compound + Ceftazidime (10 μg/ml), 0.25 μg/well, read-out: Diameter of Zone of Inhibition.
[8] abbreviates: Escherichia coli, M50, E. coli M50, Compound + Ceftazidime (10 μg/ml), read-out: Diameter of Zone of Inhibition.
The mark [9] stands for this setting: Escherichia coli, M50, E. coli M50, Compound alone, read-out: Diameter of Zone of Inhibition.
[10] abbreviates: Compound + Ceftazidime (10 μg/ml), 0.25 μg/well.
Setting [11] is: Compound + Ceftazidime (10 μg/ml).

Converted amounts (≈) assume the structure as drawn. Read-outs that look alike come from different tables or passages of the source.

T3 sequence (Q9L4P2 18-273): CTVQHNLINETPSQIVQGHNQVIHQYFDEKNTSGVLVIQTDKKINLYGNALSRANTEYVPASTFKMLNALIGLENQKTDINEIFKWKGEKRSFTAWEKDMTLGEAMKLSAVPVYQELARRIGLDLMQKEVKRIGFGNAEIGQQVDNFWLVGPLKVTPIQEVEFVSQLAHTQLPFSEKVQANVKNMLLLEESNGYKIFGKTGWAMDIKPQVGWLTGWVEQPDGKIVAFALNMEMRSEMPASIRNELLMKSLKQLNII
T1 sequence (P0AD64 22-286 R39S/G234A/E235K): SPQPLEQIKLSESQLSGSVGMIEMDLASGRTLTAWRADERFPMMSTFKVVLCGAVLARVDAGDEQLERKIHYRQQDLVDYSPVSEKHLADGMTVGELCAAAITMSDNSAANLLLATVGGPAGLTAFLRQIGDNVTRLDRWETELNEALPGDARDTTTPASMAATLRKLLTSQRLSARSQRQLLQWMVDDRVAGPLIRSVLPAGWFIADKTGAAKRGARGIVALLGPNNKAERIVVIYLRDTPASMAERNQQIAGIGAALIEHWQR

On to `NCc1ccc(CC(=O)NNC(=O)[C@@H]2CC[C@@H]3CN2C(=O)N3OS(=O)(=O)O)cc1` [Example 12, (2S,5R)-sulfuric acid mono-[2-(N′-(4-aminomethyl-phenyl-acetyl)-hydrazinocarbonyl)-7-oxo-1,6-diaza-bicyclo[3.2.1]oct-6-yl]ester], for which the MIC in experiment [1], in experiment [2] and in experiment [3] was 0.25 µg/mL (≈ 0.585 µM) throughout. Moreover, the IC50 in experiment [4] was found to be 144 nM; in experiment [5], 13 nM; in experiment [6] it was 539 nM. Also, the zone of inhibition at 0.25 µg/disc turned out to be 19 mm in the experiment on E. coli M50 (setting [7]); 15 mm with E. coli M50 (Escherichia coli, M50, E. coli M50, Compound alone, 0.25 μg/well, read-out: Diameter of Zone of Inhibition); 22 mm in the experiment on E. coli NCTC 13353 (setting [10]); 15.5 mm in the experiment with E. coli NCTC 13353 (Compound alone, 0.25 μg/well). In addition, the zone of inhibition at 0.5 µg/disc came out at 21 mm in the experiment with E. coli M50 (setting [8]), 18 mm in the experiment on E. coli M50 (setting [9]), 26 mm in the experiment on E. coli NCTC 13353 (setting [11]) and 17 mm in the experiment on E. coli NCTC 13353 (Compound alone). For the same compound, the zone of inhibition at 1 µg/disc was determined as 23 mm in the experiment on E. coli M50 (setting [8]), 19.5 mm in the experiment with E. coli M50 (setting [9]), 29 mm in the experiment on E. coli NCTC 13353 (setting [11]) and 19 mm with E. coli NCTC 13353 (Compound alone). The zone of inhibition at […] worked out at 16 mm with E. coli M50 (Escherichia coli, M50, E. coli M50, Compound + Ceftazidime (10 μg/ml), […], read-out: Diameter of Zone of Inhibition) and 19 mm with E. coli NCTC 13353 (setting [11]).

`C[C@@H](N)COc1ccccc1CC(=O)NNC(=O)[C@@H]1CC[C@@H]2CN1C(=O)N2OS(=O)(=O)O` [Example 3, (2S,5R)-Sulfuric Acid mono-[2-(N′-{2-[2-((R)-2-amino-propoxy)-phenyl]-acetyl}-hydrazinocarbonyl)-7-oxo-1,6-diaza-bicyclo[3.2.1]oct-6-yl]ester]: the minimal inhibitory concentration (MIC) in experiment [1] worked out at 1 µg/mL (≈ 2.12 µM); in experiment [2], 2 µg/mL (≈ 4.24 µM); in experiment [3] it was 1 µg/mL (≈ 2.12 µM). The values for the IC50 in experiment [4], in experiment [5] and in experiment [6] were 80 nM, 73 nM and 2020 nM, respectively. Also, the “Diameter of Zone of Inhibition” value is on record as “No growth” with E. coli M50 (Compound + Ceftazidime (10 μg/ml), […]); “No growth” in the experiment on E. coli M50 (Compound alone, 0.25 μg/well); “No growth” in the experiment on E. coli NCTC 13353 (E. coli NCTC 13353, Compound alone, 0.25 μg/well). Moreover, the values for the zone of inhibition at 0.25 µg/disc in the experiment with E. coli M50 (setting [7]) and with E. coli NCTC 13353 (setting [10]) were 10.5 mm and 14.5 mm, respectively. Besides, the zone of inhibition at 0.5 µg/disc in the experiment with E. coli M50 (setting [8]) amounted to 14 mm; with E. coli M50 (setting [9]), 11.5 mm; in the experiment with E. coli NCTC 13353 (setting [11]), 17.5 mm; in the experiment with E. coli NCTC 13353 (Compound alone), 10 mm. Besides, the zone of inhibition at 1 µg/disc in the experiment with E. coli M50 (setting [8]) was 17 mm; in the experiment on E. coli M50 (setting [9]), 14 mm; in the experiment with E. coli NCTC 13353 (setting [11]), 21.5 mm; in the experiment with E. coli NCTC 13353 (Compound alone) it was 13 mm. The zone of inhibition at […] in the experiment with E. coli NCTC 13353 (setting [11]) is 11 mm.
